Experimental data from US20230233569A1 (Revolution Medicines, Inc., priority 2020, published 2023).
Like-named read-outs stand apart in the source and are kept apart here. One block for each compound: values may come before it.

Tests used:
NCI-H358 (K-Ras G12C) = assay: CellTiter-Glo cell viability assay, 5-day treatment; format: cell-based; conditions: Homo sapiens, NCI-H358, 120 h, 5-day treatment; read-out: H358 Cell Viability assay data (K-Ras G12C, IC50)
How it was run: (§1)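 Viability is read as luminescence on day 5 after direct compound addition to plated cells, following about 30 minutes' room-temperature equilibration. Each signal is scaled to mean DMSO as 100%.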

Capan-1 (K-Ras G12V) = assay: as above; format: cell-based; conditions: Homo sapiens, CAPAN-1, 120 h, 5-day treatment; read-out: Capan-1 Cell Viability assay data (K-Ras G12V, IC50)
How it was run: as §1

KRAS G13C = KRAS G13C (Homo sapiens, UniProt P01116+P62937, G13C); assay: Disruption of BRAF RBD interaction with Ras (FRET / MOA assay, with Cyclophilin A); format: biochemical
KRAS G13C, sequence (P01116 1-169 isoform P01116-2 G13C): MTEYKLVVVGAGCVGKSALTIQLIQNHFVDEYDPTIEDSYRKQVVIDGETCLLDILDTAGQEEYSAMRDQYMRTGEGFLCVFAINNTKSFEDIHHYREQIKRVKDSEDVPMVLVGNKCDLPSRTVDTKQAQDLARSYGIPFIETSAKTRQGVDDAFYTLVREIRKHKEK
KRAS G13C, sequence (P62937 whole entry): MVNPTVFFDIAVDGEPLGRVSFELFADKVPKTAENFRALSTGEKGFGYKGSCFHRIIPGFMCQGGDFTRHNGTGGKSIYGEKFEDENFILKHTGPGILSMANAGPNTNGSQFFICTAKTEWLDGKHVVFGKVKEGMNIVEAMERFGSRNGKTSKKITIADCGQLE
How it was run: (§2)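 IC50 values reflect loss of K-Ras binding to BRAF RBD, read as a lowered TR-FRET ratio compared with DMSO, driven by compound-mediated K-Ras:Cyclophilin A complex formation. Compound top dose 30 μM final, 3-fold steps, 3 h incubation at 25 °C before a 1.5 h antibody step.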

KRAS G12D = KRAS G12D (Homo sapiens, UniProt P01116+P62937, G12D); assay: as above; format: biochemical
KRAS G12D, sequence (P01116 1-169 isoform P01116-2 G12D limits assumed): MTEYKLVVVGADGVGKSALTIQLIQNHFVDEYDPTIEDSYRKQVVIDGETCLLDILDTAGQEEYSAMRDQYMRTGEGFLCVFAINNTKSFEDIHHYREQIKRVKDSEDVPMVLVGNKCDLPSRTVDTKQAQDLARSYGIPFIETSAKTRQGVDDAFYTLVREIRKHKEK
KRAS G12D, sequence (P62937 whole entry): as the sequence (P62937 whole entry) above
How it was run: as §2

KRAS G12C = KRAS G12C (Homo sapiens, UniProt P01116+P62937, G12C); assay: as above; format: biochemical
KRAS G12C, sequence (P01116 1-169 isoform P01116-2 G12C): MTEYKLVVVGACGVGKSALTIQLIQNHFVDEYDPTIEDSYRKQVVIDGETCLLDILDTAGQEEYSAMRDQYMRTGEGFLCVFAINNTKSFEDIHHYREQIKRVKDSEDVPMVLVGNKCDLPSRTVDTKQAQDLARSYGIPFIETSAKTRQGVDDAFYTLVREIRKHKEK
KRAS G12C, sequence (P62937 whole entry): as the sequence (P62937 whole entry) above
How it was run: as §2

KRAS G13D = KRAS G13D (Homo sapiens, UniProt P01116+P62937, G13D); assay: as above; format: biochemical
KRAS G13D, sequence (P01116 1-169 isoform P01116-2 G13D limits assumed): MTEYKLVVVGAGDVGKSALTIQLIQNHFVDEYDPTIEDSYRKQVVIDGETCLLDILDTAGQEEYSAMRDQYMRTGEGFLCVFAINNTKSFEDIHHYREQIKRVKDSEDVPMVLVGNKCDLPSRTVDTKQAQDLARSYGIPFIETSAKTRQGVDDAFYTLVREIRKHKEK
KRAS G13D, sequence (P62937 whole entry): as the sequence (P62937 whole entry) above
How it was run: as §2

KRAS G12S = KRAS G12S (Homo sapiens, UniProt P01116+P62937, G12S); assay: as above; format: biochemical
KRAS G12S, sequence (P01116 1-169 isoform P01116-2 G12S limits assumed): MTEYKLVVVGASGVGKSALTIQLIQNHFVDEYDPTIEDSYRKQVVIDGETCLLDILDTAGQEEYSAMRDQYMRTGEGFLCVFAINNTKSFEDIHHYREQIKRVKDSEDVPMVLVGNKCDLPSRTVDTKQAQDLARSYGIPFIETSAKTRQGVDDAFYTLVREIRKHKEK
KRAS G12S, sequence (P62937 whole entry): as the sequence (P62937 whole entry) above
How it was run: as §2

KRAS G12V = KRAS G12V (Homo sapiens, UniProt P01116+P62937, G12V); assay: as above; format: biochemical
KRAS G12V, sequence (P01116 1-169 isoform P01116-2 G12V limits assumed): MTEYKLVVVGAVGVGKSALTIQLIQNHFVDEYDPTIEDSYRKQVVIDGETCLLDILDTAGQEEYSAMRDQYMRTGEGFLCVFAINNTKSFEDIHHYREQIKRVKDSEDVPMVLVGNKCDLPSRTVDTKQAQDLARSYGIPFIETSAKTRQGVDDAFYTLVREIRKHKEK
KRAS G12V, sequence (P62937 whole entry): as the sequence (P62937 whole entry) above
How it was run: as §2

KRAS WT = KRAS WT (Homo sapiens, UniProt P01116+P62937); assay: as above; format: biochemical
KRAS WT, sequence (P01116 1-169 isoform P01116-2 limits assumed): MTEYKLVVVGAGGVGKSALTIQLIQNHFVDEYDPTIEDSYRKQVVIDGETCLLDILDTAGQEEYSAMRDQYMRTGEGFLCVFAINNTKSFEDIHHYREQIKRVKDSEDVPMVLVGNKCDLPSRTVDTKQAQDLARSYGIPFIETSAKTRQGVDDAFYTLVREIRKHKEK
KRAS WT, sequence (P62937 whole entry): as the sequence (P62937 whole entry) above
How it was run: as §2

NRAS G12C = NRAS G12C (Homo sapiens, UniProt P01111+P62937, G12C); assay: as above; format: biochemical
NRAS G12C, sequence (P01111 whole entry G12C): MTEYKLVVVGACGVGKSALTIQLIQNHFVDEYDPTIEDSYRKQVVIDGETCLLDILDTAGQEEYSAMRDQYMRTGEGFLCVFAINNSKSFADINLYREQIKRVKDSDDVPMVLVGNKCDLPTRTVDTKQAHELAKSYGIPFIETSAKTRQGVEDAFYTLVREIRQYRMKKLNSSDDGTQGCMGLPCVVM
NRAS G12C, sequence (P62937 whole entry): as the sequence (P62937 whole entry) above

[1] = read-out: KRAS G13C FRET data, IC50
[2] = read-out: KRAS G12D FRET data, IC50
[3] = read-out: KRAS G12C FRET data, IC50
[4] = KRAS G13D, read-out: KRAS G13D FRET data IC50
[5] = read-out: KRAS G12S FRET data, IC50
[6] = KRAS G12V, read-out: KRAS G12V FRET data IC50
[7] = KRAS WT, read-out: KRAS WT FRET data IC50
[8] = NRAS G12C, read-out: NRAS G12C FRET data IC50

Structure (SMILES): CCn1c(-c2cccnc2[C@H](C)OC)c2c3cc(ccc31)-c1cc(O)cc(c1)C[C@H](NC(=O)[C@H](C(C)C)N(C)C(=O)C1CCN3CCOCC13)C(=O)N1CCC[C@H](N1)C(=O)OCC(C)(C)C2 (some centres unmarked) [Example A123]
IC50 (NCI-H358 (K-Ras G12C)): 100 to 1000 nM
IC50 (Capan-1 (K-Ras G12V)): 100 to 1000 nM
IC50 (KRAS G13C; KRAS G13C FRET data, IC50): 10 to 100 nM
IC50 (KRAS G12D; KRAS G12D FRET data, IC50): 100 to 1000 nM
IC50 (KRAS G12C; KRAS G12C FRET data, IC50): 100 to 1000 nM
IC50 (KRAS G13D; KRAS G13D FRET data IC50, KRAS G13D): 100 to 1000 nM
IC50 (KRAS G12S; KRAS G12S FRET data, IC50): 100 to 1000 nM
IC50 (KRAS G12V; KRAS G12V FRET data IC50, KRAS G12V): 100 to 1000 nM
IC50 (KRAS WT; KRAS WT FRET data IC50, KRAS WT): 100 to 1000 nM
IC50 (NRAS G12C; NRAS G12C FRET data IC50, NRAS G12C): 100 to 1000 nM

Structure (SMILES): CCn1c(-c2cnccc2COC)c2c3cc(ccc31)-c1cc(O)cc(c1)C[C@H](NC(=O)[C@H](C(C)C)N(C)C(=O)N1CC(OC)C1)C(=O)N1CCC[C@H](N1)C(=O)OCC(C)(C)C2 [Example A30]
IC50 (NCI-H358 (K-Ras G12C)): 100 to 1000 nM
IC50 (Capan-1 (K-Ras G12V)): 100 to 1000 nM
IC50 (KRAS G13C; [1]): 100 to 1000 nM
IC50 (KRAS G12D; [2]): 1000 to 10000 nM
IC50 (KRAS G12C; [3]): 100 to 1000 nM
IC50 (KRAS G13D; [4]): 1000 to 10000 nM
IC50 (KRAS G12S; [5]): 100 to 1000 nM
IC50 (KRAS G12V; [6]): 100 to 1000 nM
IC50 (KRAS WT; [7]): 100 to 1000 nM
IC50 (NRAS G12C; [8]): 100 to 1000 nM

Structure (SMILES): CCn1c(-c2cccnc2[C@H](C)OC)c2c3cc(ccc31)-c1cc(O)cc(c1)C[C@H](NC(=O)[C@H](C(C)C)N(C)C(=O)[C@H]1CCN(C(=O)C(C)(C)N(C)C)C1)C(=O)N1CCC[C@H](N1)C(=O)OCC(C)(C)C2 (atropisomer, axis not shown) [Example A114]
IC50 (NCI-H358 (K-Ras G12C)): 10 to 100 nM
IC50 (Capan-1 (K-Ras G12V)): 10 to 100 nM
IC50 (KRAS G13C; [1]): 10 to 100 nM
IC50 (KRAS G12D; [2]): 100 to 1000 nM
IC50 (KRAS G12C; [3]): 10 to 100 nM
IC50 (KRAS G13D; [4]): 10 to 100 nM
IC50 (KRAS G12S; [5]): 10 to 100 nM
IC50 (KRAS G12V; [6]): 10 to 100 nM
IC50 (KRAS WT; [7]): 10 to 100 nM
IC50 (NRAS G12C; [8]): 10 to 100 nM

Structure (SMILES): CCn1c(-c2cccnc2[C@H](C)OC)c2c3cc(ccc31)-c1cc(O)cc(c1)C[C@H](NC(=O)[C@H](C(C)C)N(C)C(=O)C13CNCC1C3)C(=O)N1CCC[C@H](N1)C(=O)OCC(C)(C)C2 (some centres unmarked) [Example A155]
IC50 (NCI-H358 (K-Ras G12C)): 100 to 1000 nM
IC50 (Capan-1 (K-Ras G12V)): 1000 to 10000 nM
IC50 (KRAS G13C; [1]): 10 to 100 nM
IC50 (KRAS G12D; [2]): 100 to 1000 nM
IC50 (KRAS G12C; [3]): 10 to 100 nM
IC50 (KRAS G13D; [4]): 10 to 100 nM
IC50 (KRAS G12S; [5]): 100 to 1000 nM
IC50 (KRAS G12V; [6]): 100 to 1000 nM
IC50 (KRAS WT; [7]): 10 to 100 nM
IC50 (NRAS G12C; [8]): 100 to 1000 nM

Structure (SMILES): CCn1c(-c2cccnc2[C@H](C)OC)c2c3cc(ccc31)-c1cc(O)cc(c1)C[C@H](NC(=O)[C@H](C(C)C)N(C)C(=O)[C@H]1CC[C@@H](CN(C)C)O1)C(=O)N1CCC[C@H](N1)C(=O)OCC(C)(C)C2 [Example A397]
IC50 (NCI-H358 (K-Ras G12C)): 100 to 1000 nM
IC50 (Capan-1 (K-Ras G12V)): 100 to 1000 nM
IC50 (KRAS G13C; [1]): 10 to 100 nM
IC50 (KRAS G12D; [2]): 10 to 100 nM
IC50 (KRAS G12C; [3]): 10 to 100 nM
IC50 (KRAS G13D; [4]): 10 to 100 nM
IC50 (KRAS G12S; [5]): 10 to 100 nM
IC50 (KRAS G12V; [6]): 100 to 1000 nM
IC50 (KRAS WT; [7]): 10 to 100 nM
IC50 (NRAS G12C; [8]): 10 to 100 nM

Further lines, with some results ahead:

IC50 (NCI-H358 (K-Ras G12C)): 10 to 100 nM
IC50 (KRAS G13C; [1]): 1000 to 10000 nM
IC50 (KRAS G12D; [2]): > 10000 nM
IC50 (KRAS G12C; [3]): 1000 to 10000 nM
IC50 (KRAS G13D; [4]): 1000 to 10000 nM
IC50 (KRAS G12S; [5]): 1000 to 10000 nM
IC50 (KRAS G12V; [6]): 1000 to 10000 nM
IC50 (KRAS WT; [7]): 1000 to 10000 nM
IC50 (NRAS G12C; [8]): 1000 to 10000 nM
Structure (SMILES): CCn1c(-c2cccnc2[C@H](C)OC)c2c3cc(ccc31)-c1csc(n1)C[C@H](NC(=O)[C@H](C1CCCC1)N(C)C(C)=O)C(=O)N1CCC[C@H](N1)C(=O)OCC(C)(C)C2 [Example A141]
IC50 (Capan-1 (K-Ras G12V)): 10 to 100 nM

IC50 (NCI-H358 (K-Ras G12C)): 1000 to 10000 nM
IC50 (KRAS G13C; [1]): 10 to 100 nM
IC50 (KRAS G12D; [2]): 10 to 100 nM
IC50 (KRAS G12C; [3]): 100 to 1000 nM
IC50 (KRAS G13D; [4]): 10 to 100 nM
IC50 (KRAS G12S; [5]): 100 to 1000 nM
IC50 (KRAS G12V; [6]): 1000 to 10000 nM
IC50 (KRAS WT; [7]): 100 to 1000 nM
IC50 (NRAS G12C; [8]): 100 to 1000 nM
Structure (SMILES): CCn1c(-c2cccnc2[C@H](C)OC)c2c3cc(ccc31)-c1cc(O)cc(c1)C[C@H](NC(=O)[C@H](C(C)C)N(C)C(=O)[C@H]1CCCN[C@@H]1C)C(=O)N1CCC[C@H](N1)C(=O)OCC(C)(C)C2 [Example A134]
IC50 (Capan-1 (K-Ras G12V)): > 10000 nM

IC50 (NCI-H358 (K-Ras G12C)): 10 to 100 nM
IC50 (KRAS G13C; [1]): 10 to 100 nM
IC50 (KRAS G12D; [2]): 100 to 1000 nM
IC50 (KRAS G12C; [3]): 10 to 100 nM
IC50 (KRAS G13D; [4]): 100 to 1000 nM
IC50 (KRAS G12S; [5]): 10 to 100 nM
IC50 (KRAS G12V; [6]): 10 to 100 nM
IC50 (KRAS WT; [7]): 10 to 100 nM
IC50 (NRAS G12C; [8]): 10 to 100 nM
Structure (SMILES): CCn1c(-c2cccnc2[C@H](C)OC)c2c3cc(ccc31)-c1cc(O)cc(c1)C[C@H](NC(=O)[C@H](C(C)C)N(C)C(=O)[C@@H]1C[C@H]1C)C(=O)N1CCC[C@H](N1)C(=O)OCC(C)(C)C2 [Example A147]
IC50 (Capan-1 (K-Ras G12V)): 100 to 1000 nM
